Source: patent US12195755B2, “Placental lipid bilayer for cell-free molecular interaction studies” (priority 2019, dated 2025)

Assays:
keratinocytes = details: cited from earlier work
[1] = cited from earlier work
[2] = Parallel artificial membrane permeability assay (PAMPA) with suspended lipid bilayers; assay type: in vitro ADME, human; details: 0.1 mg/mL amphotericin B
Procedure: “Parallel artificial membrane permeability assay” (PAMPA) is a method that determines the permeability of substances from a donor compartment, through a lipid-infused artificial membrane into an acceptor compartment. A multi-well microtiter plate is used for the donor, and a membrane/acceptor compartment is placed on top. The whole assembly is referred to in the heterogeneous membrane art as a “sandwich.” Initially, the drug is added to the donor compartment, and the acceptor compartment is drug-free. After an incubation period, which may include stirring, the sandwich is separated, and the drug is measured in each compartment. Techniques including but not limited to absorbance measurements allow calculation of the drug that remains in the membrane.
Using a parallel artificial permeability assay (PAMPA) with suspended lipid bilayers, polyvinylidene difluoride (PVDF) 96-well multiscreen filter plates ([…]) and transport receiver plates (Millipore-Sigma, Burlington, MA, USA), the inventors investigate DEHP, amphotericin B, and amBisome® diffusion from a donor compartment, through the porous membrane treated with lipid, to an acceptor compartment. The maximum absorbance for DEHP, amphotericin B, and amBisome® was measured using a plate reader and determined to be 280 nm, 340 nm, and 320 nm, respectively. […]

CNC(=O)Oc1cccc2c1OC(C)(C)C2 [Carbofuran, carbofuran]
toxicity against keratinocytes (keratinocytes): toxic

CCCCC(CC)COC(=O)c1ccccc1C(=O)OCC(CC)CCCC (centres unmarked) [DEHP, di(2-ethylhexyl) phthalate]
risk for miscarriage ([1]; higher concentrations of phthalates): increases the risk for miscarriage | more likely to lose a pregnancy compared to women with lower levels ([1]; women exposed to high concentrations): 60%

C[C@@H]1[C@H](O)[C@@H](C)/C=C/C=C/C=C/C=C/C=C/C=C/C=C/[C@H](O[C@@H]2O[C@H](C)[C@@H](O)[C@H](N)[C@@H]2O)C[C@@H]2O[C@](O)(C[C@@H](O)C[C@@H](O)[C@H](O)CC[C@@H](O)C[C@@H](O)CC(=O)O[C@H]1C)C[C@H](O)[C@H]2C(=O)O [amphotericin B]
interaction with suspended trophoblast bilayers compared to amBisome® [2]: interacts less | interaction with suspended trophoblast bilayers compared to amBisome® ([2]; listed as Amphotericin B): interacted more
